The target of test [1] is binding of IL-17A to IL-17RA (Homo sapiens (Human), UniProt Q16552). As to the kind of experiment: IL-17A:IL-17RA AlphaLISA.
Experimental: The ability of compounds to inhibit the binding of IL-17A to IL-17RA may be assessed with an AlphaLISA assay.
To assay the compounds of the present invention, 0.1 μL of a test compound stock is serially diluted in 100% DMSO using an Echo Acoustic Liquid Handler (LabCyte Sunnydale, Calif.) in 384 well proxiplates (Perkin Elmer). A 5 μL addition of IL-17RA-FLAG is added to the plate, followed by the addition of 5 μL Avi-tagged IL-17A-His to provide a final concentration of 2 nM of IL-17RA and IL-17A, respectively. The assay is carried out in 20 mM HEPES, 150 mM NaCl, 0.05% Tween-20, 0.1% Human Serum Albumin, pH 7 and 1% DMSO. The assay mixture is allowed to incubate at room temperature for 2 hours. After the 2 hour incubation, 10 μL of streptavidin donor beads (20 μg/ml final) and anti-FLAG acceptor beads (20 μg/ml final) are added to the plate. The plate is allowed to incubate for one hour at room temp, then is read on the Envision (Perkin Elmer). The relative IC50 values are determined using a four parameter fit as shown in equation 1. In this equation, bottom and top are defined as the plateaus of the curve, and H is the Hill Slope.
The target in another test is human IL-17A (Homo sapiens (Human), UniProt Q16552).

pIC50: −log10 of the molar value.

human IL-17A, sequence (Q16552 20-155): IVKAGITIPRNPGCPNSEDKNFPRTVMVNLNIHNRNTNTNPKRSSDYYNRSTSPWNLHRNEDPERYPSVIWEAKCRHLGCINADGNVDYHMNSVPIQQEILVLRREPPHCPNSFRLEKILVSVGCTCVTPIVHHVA
binding of IL-17A to IL-17RA, sequence (Q16552 other isoform, or with tags, fused parts or gaps): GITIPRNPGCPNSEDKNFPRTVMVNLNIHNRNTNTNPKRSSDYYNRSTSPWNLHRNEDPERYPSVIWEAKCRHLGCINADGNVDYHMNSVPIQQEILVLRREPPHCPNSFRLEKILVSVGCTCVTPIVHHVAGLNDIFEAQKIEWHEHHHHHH
Experimental for human IL-17A: The ability of compounds to neutralize the activity of IL-17A may be assessed with a cell-based human IL-17A neutralization assay conducted essentially as follows. […] After 48 hours, CXCL1/GROα in the culture media is measured using a commercial ELISA kit (#DY275; R&D Systems). Medium alone treatments are included in every experiment to assess the basal levels of CXCL1/GROα. Percent inhibition is calculated using the following equation:

For the molecule `O=C(N[C@H](c1cn2ncc(CN3C[C@@H](C(F)(F)F)NC3=O)cc2n1)C1CCC(F)(F)CC1)c1conc1CC(F)F` [Example 8, N—[(S)-(4,4-Difluorocyclohexyl)-[7-[[(4S)-2-oxo-4-(trifluoromethyl)imidazolidin-1-yl]methyl]imidazo[1,2-b]pyridazin-2-yl]methyl]-3-(2,2-difluoroethyl)isoxazole-4-carboxamide], the pIC50 in test [1] is 7.81; at human IL-17A, 7.28.
For `O=C(N[C@H](c1cn2ncc(CN3C[C@@H](C(F)(F)F)NC3=O)cc2n1)C1CCC(F)(F)CC1)c1conc1C1CC(F)(F)C1` [Example 10, 3-(3,3-Difluorocyclobutyl)-N—[(S)-(4,4-difluorocyclohexyl)-[7-[[(4S)-2-oxo-4-(trifluoromethyl)imidazolidin-1-yl]methyl]imidazo[1,2-b]pyridazin-2-yl]methyl]isoxazole-4-carboxamide], in that order: 7.33 and 7.31.
For `O=C(N[C@H](c1cn2ncc(CN3C[C@@H](C(F)(F)F)NC3=O)cc2n1)C1CCC(F)(F)CC1)c1conc1C1(F)CC1` [Example 12, N—[(S)-(4,4-Difluorocyclohexyl)-[7-[[(4S)-2-oxo-4-(trifluoromethyl)imidazolidin-1-yl]methyl]imidazo[1,2-b]pyridazin-2-yl]methyl]-3-(1-fluorocyclopropyl)isoxazole-4-carboxamide], in that order: 7.74 and 6.97.
For `O=C(N[C@H](c1cn2ncc(CN3C[C@@H](C(F)(F)F)NC3=O)cc2n1)C1CCC(F)(F)CC1)c1conc1C(F)(F)C1CC1` [Example 13, 3-[Cyclopropyl(difluoro)methyl]-N—[(S)-(4,4-difluorocyclohexyl)-[7-[[(4S)-2-oxo-4-(trifluoromethyl)imidazolidin-1-yl]methyl]imidazo[1,2-b]pyridazin-2-yl]methyl]isoxazole-4-carboxamide], in that order: 7.33 and 7.27.
On to `CC1(c2nocc2C(=O)N[C@H](c2cn3ncc(CN4C[C@@H](C(F)(F)F)NC4=O)cc3n2)C2CCC(F)(F)CC2)CC1` [Example 14, N—[(S)-(4,4-Difluorocyclohexyl)-[7-[[(4S)-2-oxo-4-(trifluoromethyl)imidazolidin-1-yl]methyl]imidazo[1,2-b]pyridazin-2-yl]methyl]-3-(1-methylcyclopropyl)isoxazole-4-carboxamide], for which the values for the pIC50 (in test [1]; against human IL-17A) were 7.44 and 7.48, respectively.
For `CC(C)(F)c1nocc1C(=O)N[C@H](c1cn2ncc(CN3C[C@@H](C(F)(F)F)NC3=O)cc2n1)C1CCC(F)(F)CC1` [Example 15, N—[(S)-(4,4-Difluorocyclohexyl)-[7-[[(4S)-2-oxo-4-(trifluoromethyl)imidazolidin-1-yl]methyl]imidazo[1,2-b]pyridazin-2-yl]methyl]-3-(1-fluoro-1-methyl-ethyl)isoxazole-4-carboxamide], in that order: 7.28 and 7.08.
For `CC(C)c1nocc1C(=O)N[C@H](c1cn2ncc(CN3C[C@@H](C(F)(F)F)NC3=O)cc2n1)C1CCC(F)(F)CC1` [Example 16, N—[(S)-(4,4-Difluorocyclohexyl)-[7-[[(4S)-2-oxo-4-(trifluoromethyl)imidazolidin-1-yl]methyl]imidazo[1,2-b]pyridazin-2-yl]methyl]-3-isopropyl-isoxazole-4-carboxamide], the figures for the pIC50 (in test [1]; at human IL-17A) were 7.71 and 7.97, respectively.
For `CCc1nonc1C(=O)N[C@H](c1cn2ncc(CN3C[C@@H](C(F)(F)F)NC3=O)cc2n1)C1CCC(F)(F)CC1` [Example 17, N—[(S)-(4,4-Difluorocyclohexyl)-[7-[[(4S)-2-oxo-4-(trifluoromethyl)imidazolidin-1-yl]methyl]imidazo[1,2-b]pyridazin-2-yl]methyl]-4-ethyl-1,2,5-oxadiazole-3-carboxamide], in that order: greater than 8.02 and 7.80.

By pIC50 is commonly meant the negative decadic logarithm of the IC50, by convention in mol/L. High values mean a small IC50, low ones a large IC50.

The record behind these values is patent US12252491B2, “IL-17A inhibitors” (Eli Lilly and Company, priority 2019, dated 2025).
